Read-outs that look alike come from different tables or passages of the source.
Tests used:
Assay in all cases: Checkerboard broth dilution synergy study (mic)
Format in all cases: cell-based
[1] = test system: Pseudomonas aeruginosa; details: for MIC: Pseudomonas aeruginosa, read-out: mic, drug alone
[2] = test system: E. cloacae; details: for MIC: Enterobacter cloacae, read-out: mic, drug alone
[3] = test system: Klebsiella pneumoniae; details: for MIC: Klebsiella pneumoniae, read-out: mic, drug alone

Compound: COC1(NC(=O)C(C(=O)O)c2ccc(O)cc2)C(=O)N2C(C(=O)O)=C(CSc3nnnn3C)COC21 (stereo not shown) [1-oxa compound I, moxalactam]
- MIC ([1]; Table II, strain 84): 16 µg/mL
- MIC ([1]; Table II, strain 366): 16 µg/mL
- MIC ([1]; Table II, strain 424): 8 µg/mL
- MIC ([1]; Table II, strain 447): 32 µg/mL
- MIC ([1]; Table II, strain 1484): 64 µg/mL
- MIC ([1]; Table II, strain Davis): > 64 µg/mL
- MIC ([1]; Table III, isolate 316-2): 8 µg/mL
- MIC ([1]; Table III, isolate 362): 32 µg/mL
- MIC ([1]; Table III, isolate 363): 32 µg/mL
- MIC ([1]; Table III, isolate 610): > 64 µg/mL
- MIC ([1]; Table III, isolate Brownlee): 32 µg/mL
- mic of each drug in combination I + P ([1]; Table II, strain 84): 4 µg/mL
- mic of each drug in combination I + T ([1]; Table II, strain 84): 2 µg/mL
- mic of each drug in combination I + P ([1]; Table II, strain 366): 8 µg/mL
- mic of each drug in combination I + T ([1]; Table II, strain 366): 0.5 µg/mL
- mic of each drug in combination I + P ([1]; Table II, strain 424): 2 µg/mL
- mic of each drug in combination I + T ([1]; Table II, strain 424): 2 µg/mL
- mic of each drug in combination I + P ([1]; Table II, strain 447): 4 µg/mL
- mic of each drug in combination I + T ([1]; Table II, strain 447): < 0.5 µg/mL
- mic of each drug in combination I + P ([1]; Table II, strain 1484): 16 µg/mL
- mic of each drug in combination I + T ([1]; Table II, strain 1484): 4 µg/mL
- mic of each drug in combination I + P ([1]; Table II, strain Davis): 8 µg/mL
- mic of each drug in combination I + T ([1]; Table II, strain Davis): 2 µg/mL
- mic of each drug in combination I + A ([1]; Table III, isolate 316-2): 4 µg/mL
- mic of each drug in combination I + A ([1]; Table III, isolate 362): 4 µg/mL
- mic of each drug in combination I + A ([1]; Table III, isolate 363): 1 µg/mL
- mic of each drug in combination I + A ([1]; Table III, isolate 610): 0.6 µg/mL
- mic of each drug in combination I + A ([1]; Table III, isolate Brownlee): 1 µg/mL
- MIC ([2]; Table II, strain 1246): 0.25 µg/mL
- MIC ([2]; Table II, strain 1253): 4 µg/mL
- MIC ([2]; Table II, strain 1415): 0.12 µg/mL
- MIC ([2]; Table II, strain B293): 0.5 µg/mL
- MIC ([2]; Table III, isolate 228): 0.12 µg/mL
- MIC ([2]; Table III, isolate 1253): 4 µg/mL
- MIC ([2]; Table III, isolate 1296): 0.25 µg/mL
- MIC ([2]; Table III, isolate 1415): 0.12 µg/mL
- MIC ([2]; Table III, isolate McQuinn): 0.25 µg/mL
- mic of each drug in combination I + T ([2]; Table II, strain 1246): < 0.12 µg/mL
- mic of each drug in combination I + P ([2]; Table II, strain 1253): 2 µg/mL
- mic of each drug in combination I + T ([2]; Table II, strain 1253): 0.25 µg/mL
- mic of each drug in combination I + T ([2]; Table II, strain 1415): 0.12 µg/mL
- mic of each drug in combination I + P ([2]; Table II, strain B293): 0.25 µg/mL
- mic of each drug in combination I + T ([2]; Table II, strain B293): 0.12 µg/mL
- mic of each drug in combination I + A ([2]; Table III, isolate 228): < 0.06 µg/mL
- mic of each drug in combination I + A ([2]; Table III, isolate 1253): < 0.06 µg/mL
- mic of each drug in combination I + A ([2]; Table III, isolate 1296): 0.06 µg/mL
- mic of each drug in combination I + A ([2]; Table III, isolate 1415): 0.12 µg/mL
- mic of each drug in combination I + A ([2]; Table III, isolate McQuinn): 0.12 µg/mL
- MIC ([3]; Table II, strain 130): 0.5 µg/mL
- MIC ([3]; Table II, strain 214-1): 2 µg/mL
- MIC ([3]; Table II, strain 463): 2 µg/mL
- MIC ([3]; Table II, strain 512): 0.5 µg/mL
- MIC ([3]; Table II, strain 933): 0.25 µg/mL
- MIC ([3]; Table II, strain 1204-2): 2 µg/mL
- MIC ([3]; Table III, isolate 130): 0.5 µg/mL
- MIC ([3]; Table III, isolate 214-1): 2 µg/mL
- MIC ([3]; Table III, isolate 463): 2 µg/mL
- MIC ([3]; Table III, isolate 938): 0.25 µg/mL
- MIC ([3]; Table III, isolate 1231): 0.5 µg/mL
- mic of each drug in combination I + T ([3]; Table II, strain 130): < 0.012 µg/mL
- mic of each drug in combination I + P ([3]; Table II, strain 214-1): 0.5 µg/mL
- mic of each drug in combination I + T ([3]; Table II, strain 214-1): 0.012 µg/mL
- mic of each drug in combination I + P ([3]; Table II, strain 463): 2 µg/mL
- mic of each drug in combination I + T ([3]; Table II, strain 463): 0.012 µg/mL
- mic of each drug in combination I + P ([3]; Table II, strain 512): 0.5 µg/mL
- mic of each drug in combination I + T ([3]; Table II, strain 512): 0.012 µg/mL
- mic of each drug in combination I + T ([3]; Table II, strain 933): < 0.012 µg/mL
- mic of each drug in combination I + P ([3]; Table II, strain 1204-2): 0.5 µg/mL
- mic of each drug in combination I + T ([3]; Table II, strain 1204-2): 0.012 µg/mL
- mic of each drug in combination I + A ([3]; Table III, isolate 130): 0.5 µg/mL
- mic of each drug in combination I + A ([3]; Table III, isolate 214-1): < 0.06 µg/mL
- mic of each drug in combination I + A ([3]; Table III, isolate 463): 2 µg/mL
- mic of each drug in combination I + A ([3]; Table III, isolate 938): < 0.06 µg/mL

— patent publication US4452778A, “Synergistic antibacterial compositions and method of treatment of infections caused by multiple antibiotic-resistant organisms” (Eli Lilly and Company, priority 1981, dated 1984)
